Laboratory results published in patent US5858972A, “Antithrombotic agents and methods of use” (La Jolla Cancer Research Foundation, priority 1996, dated 1999).
In brackets after ≈: the same amount, converted by molar mass. Where a SMILES comes first, the peptide text is derived from it. Bridges are numbered along the chain shown (N, C = ends). [ ]: non-standard residue; d: D form. Nle = CCCC[C@H](N)C(=O)O

Assays:
[1] = tested on: platelets (platelet-rich plasma); experiment: ADP-induced platelet aggregation in citrated platelet-rich plasma (low Ca2+); assay type: cell-based; conditions: human PRP, 10 μM ADP; for IC50, platelet aggregation in citrated plasma: citrated plasma (about 0.18 mM free Ca2+), 37° C.
Excerpt: (§1) This example provides platelet aggregation studies for various peptides of the present invention. The studies compare the effect of the peptide on aggregation in both citrated and heparinized plasma. Because citrate is a chelating agent for calcium ions, the citrated plasma has a low calcium concentration as is characteristic of a clot site. In contrast, heparinized plasma has a calcium concentration similar to that of physiological conditions elsewhere in the blood stream.
(§2) Whole blood was drawn by a licensed phlebotomist from the antecubital vein using a 21 gauge butterfly infusion set and syringe from normal human volunteers. Platelet-rich plasma (PRP) was prepared by centrifuging heparinized (20 Units lithium porcine mucosa heparin/ml whole blood) or citrated (0.38% sodium citrate) whole blood for 12 min. at 200 relative centrifugal force (RCF). Platelet-poor plasma (PPP) is prepared by centrifuging PRP at 750 RCF for 12 min. and collecting the supernatant. Blood cell counts were performed using a Serano Baker automated cell counter. PRP platelet counts were adjusted to 200,000/μl by dilution with PPP. Final plasma free Ca+^2 concentrations were approximately 0.18 mM for citrated plasma and 2.3 mM for heparinized plasma. Platelet aggregation was determined spectrophotometrically utilizing a four channel aggregometer (Chrono-Log 570) by measuring the increase of light transmission through a stirred suspension of PRP maintained at 37° C. Dilutions of the peptides were added to the suspensions and aggregation induced with 10 μM adenosine diphosphate (ADP). Values were expressed as percentage of aggregation in the absence of peptides. This represents the percentage of light transmission standardized to PRP and PPP samples yielding 0% and 100% light transmission respectively.
(§3) Peptide anti-aggregation potencies were determined from dose-responsive curves for the inhibition of the maximum aggregation responses stimulated by high doses of ADP (10 μm). The 50% inhibitory concentration of each peptide (IC50) was determined by regression analysis of these curves.

[2] = molecular target: T1, GP-IIb/IIIa (Homo sapiens, UniProt P05106+P08514); experiment: Platelet aggregation in citrated (low Ca2+) versus heparinized (physiological Ca2+) plasma: apparent affinity for GP-IIb/IIIa; assay type: cell-based; conditions: 10 μM ADP; for difference in apparent binding affinity for GP-IIb/IIIa at low (citrate) versus higher (heparin) calcium concentration, in words: citrated vs heparinized plasma; for increase (separation) in apparent affinity for GP-IIb/IIIa in low calcium concentration as compared to physiological calcium concentration: citrated plasma (about 0.18 mM Ca2+) vs heparinized plasma (2.3 mM Ca2+)
T1 construct: Platelet-rich plasma (PRP) was prepared by centrifuging heparinized; endogenous in cells; host or cells: human platelets in platelet-rich plasma (citrated or heparinized) from normal volunteers
Excerpt: as §1, §2, §3

T1 sequence (P08514 32-887 limits assumed): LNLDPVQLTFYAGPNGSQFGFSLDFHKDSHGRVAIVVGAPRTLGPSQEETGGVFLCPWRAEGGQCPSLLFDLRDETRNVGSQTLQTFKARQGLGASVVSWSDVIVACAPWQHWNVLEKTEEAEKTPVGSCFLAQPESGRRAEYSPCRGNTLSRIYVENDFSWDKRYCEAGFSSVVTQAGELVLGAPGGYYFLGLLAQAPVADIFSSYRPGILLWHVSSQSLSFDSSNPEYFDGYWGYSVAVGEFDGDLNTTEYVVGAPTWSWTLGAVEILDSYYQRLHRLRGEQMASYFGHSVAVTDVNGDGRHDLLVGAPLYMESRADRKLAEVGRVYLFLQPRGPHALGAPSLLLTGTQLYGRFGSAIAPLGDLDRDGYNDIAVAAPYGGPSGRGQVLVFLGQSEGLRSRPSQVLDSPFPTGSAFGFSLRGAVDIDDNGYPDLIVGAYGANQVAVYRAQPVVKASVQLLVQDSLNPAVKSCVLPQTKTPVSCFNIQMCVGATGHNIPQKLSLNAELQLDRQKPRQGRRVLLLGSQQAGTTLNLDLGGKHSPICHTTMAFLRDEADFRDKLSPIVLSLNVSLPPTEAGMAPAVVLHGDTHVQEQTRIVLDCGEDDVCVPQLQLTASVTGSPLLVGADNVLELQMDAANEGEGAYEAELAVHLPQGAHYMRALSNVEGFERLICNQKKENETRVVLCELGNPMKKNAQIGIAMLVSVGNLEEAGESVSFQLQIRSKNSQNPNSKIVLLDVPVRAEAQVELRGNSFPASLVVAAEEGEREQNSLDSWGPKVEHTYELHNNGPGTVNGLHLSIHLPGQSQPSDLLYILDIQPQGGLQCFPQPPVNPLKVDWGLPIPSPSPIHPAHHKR
T1 sequence (P08514 891-1039 partner limits assumed): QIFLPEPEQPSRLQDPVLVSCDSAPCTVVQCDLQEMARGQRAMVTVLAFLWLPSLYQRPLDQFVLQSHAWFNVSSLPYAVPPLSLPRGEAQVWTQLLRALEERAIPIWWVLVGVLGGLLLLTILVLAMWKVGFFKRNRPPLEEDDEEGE
T1 sequence (P05106 27-788): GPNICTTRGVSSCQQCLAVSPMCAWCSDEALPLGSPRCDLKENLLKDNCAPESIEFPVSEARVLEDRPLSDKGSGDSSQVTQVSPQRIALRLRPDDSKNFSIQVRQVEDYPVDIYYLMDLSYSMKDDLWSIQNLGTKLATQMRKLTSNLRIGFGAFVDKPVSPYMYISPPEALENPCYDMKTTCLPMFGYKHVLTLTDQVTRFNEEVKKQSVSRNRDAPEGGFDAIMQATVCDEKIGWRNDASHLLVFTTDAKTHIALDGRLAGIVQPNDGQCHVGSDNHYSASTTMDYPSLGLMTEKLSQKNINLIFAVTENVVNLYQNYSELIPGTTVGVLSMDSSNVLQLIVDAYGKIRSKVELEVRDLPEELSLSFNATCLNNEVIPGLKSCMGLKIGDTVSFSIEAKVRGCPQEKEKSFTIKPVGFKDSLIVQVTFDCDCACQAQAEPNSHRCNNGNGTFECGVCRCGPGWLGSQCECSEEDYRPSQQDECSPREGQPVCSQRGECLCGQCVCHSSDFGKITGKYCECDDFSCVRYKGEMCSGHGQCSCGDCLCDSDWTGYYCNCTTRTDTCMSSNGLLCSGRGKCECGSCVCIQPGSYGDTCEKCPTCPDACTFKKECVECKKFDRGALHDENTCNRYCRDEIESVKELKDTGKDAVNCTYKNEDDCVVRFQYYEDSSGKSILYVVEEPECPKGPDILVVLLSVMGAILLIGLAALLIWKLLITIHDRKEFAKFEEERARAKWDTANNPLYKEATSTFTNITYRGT

Row | Compound | IC50, platelet aggregation in citrated plasma [1] [µg/mL] | increase (separation) in apparent affinity for GP-IIb/IIIa in low calcium concentration as compared to physiological calcium concentration [2] [fold] | difference in apparent binding affinity for GP-IIb/IIIa at low (citrate) versus higher (heparin) calcium concentration, in words [2] | inhibitory activity on platelet aggregation stimulated with ADP, in words [1]
1 | COc1ccc(C[C@@H]2NC(=O)[C@H](CC(=O)O)NC(=O)CNC(=O)[C@H](C)NC(=O)[C@@H]3CCCN3C(=O)[C@H](CC(N)=O)NC(=O)[C@@H](NC(C)=O)CSSC[C@@H](C(N)=O)NC(=O)[C@H](CCCNC(=N)N)NC2=O)cc1 [SEQ ID NO. 2, Ac-CNPAGD(Y-OMe)RC-NH2] (Ac-CNPAGDY(Me)RC-NH2; disulfide 1-9) | 309 (≈ 294 µM) |  | a separation between the apparent binding affinity | 
2 | CCCC[C@@H]1NC(=O)[C@@H]2CCCN2C(=O)[C@H](CC(N)=O)NC(=O)[C@@H](NC(C)=O)CSSC[C@@H](C(N)=O)NC(=O)[C@H](CCCNC(=N)N)NC(=O)[C@H](Cc2ccc(OC)cc2)NC(=O)[C@H](CC(=O)O)NC(=O)CNC1=O [SEQ ID NO. 3, Ac-CNP(Nle)GD(Y-OMe)RC-NH2] (Ac-CNP[Nle]GDY(Me)RC-NH2; disulfide 1-9) | 43 (≈ 39.3 µM) | 20 |  | 

Now from value to compound, other results behind:

Row | IC50, platelet aggregation in citrated plasma [1] [µg/mL] | increase (separation) in apparent affinity for GP-IIb/IIIa in low calcium concentration as compared to physiological calcium concentration [2] [fold] | Compound | difference in apparent binding affinity for GP-IIb/IIIa at low (citrate) versus higher (heparin) calcium concentration, in words [2] | inhibitory activity on platelet aggregation stimulated with ADP, in words [1]
3 | > 370 |  | COc1ccc(C[C@H](NC(=O)[C@H](CC(=O)O)NC(=O)CNC(=O)[C@H](C)NC(=O)[C@@H]2CCCN2C(=O)[C@H](CC(N)=O)NC(=O)[C@H](CS)NC(C)=O)C(=O)N[C@@H](CCCNC(=N)N)C(=O)N[C@@H](CS)C(N)=O)cc1 [SEQ ID NO. 5, Ac-CNPAGD(Y-OMe)RC-NH2] (Ac-CNPAGDY(Me)RC-NH2) | no difference in their apparent affinity for GP-IIb/IIIa at low versus higher calcium concentration | little to no activity
4 | > 370 |  | CCCC[C@H](NC(=O)[C@@H]1CCCN1C(=O)[C@H](CC(N)=O)NC(=O)[C@H](CS)NC(C)=O)C(=O)NCC(=O)N[C@@H](CC(=O)O)C(=O)N[C@@H](Cc1ccc(OC)cc1)C(=O)N[C@@H](CCCNC(=N)N)C(=O)N[C@@H](CS)C(N)=O [SEQ ID NO. 6, Ac-CNP(Nle)GD(Y-OMe)RC-NH2] (Ac-CNP[Nle]GDY(Me)RC-NH2) | no difference in their apparent affinity for GP-IIb/IIIa at low versus higher calcium concentration | little to no activity
5 | 0.2 (≈ 0.176 µM) | 12 | COc1ccc(C[C@@H]2NC(=O)[C@H](CC(=O)O)NC(=O)CNC(=O)[C@H](CCCNC(=N)N)NC(=O)[C@@H]3CCCN3C(=O)[C@H](CC(N)=O)NC(=O)[C@@H](NC(C)=O)CSSC[C@@H](C(N)=O)NC(=O)[C@H](CCCNC(=N)N)NC2=O)cc1 [SEQ ID NO. 8, Ac-CNPRGD(Y-OMe)RC-NH2] |  | 
